Reference: ChEMBL document CHEMBL1155430, “Discovery of novel and potent benzhydryl-tropane trypanocides highly selective for Trypanosoma cruzi” (Bioorg Med Chem Lett, 2010)

Experiments:
Trypanosoma cruzi = test: Antiparasitic activity against Trypanosoma cruzi Tulahuen C2C4 amastigotes; assay type: functional, organism-based
L6 = test: Cytotoxicity against rat L6 cells; assay type: cell-based
[1] = system: Trypanosoma brucei rhodesiense; test: Antiparasitic activity against Trypanosoma brucei rhodesiense STIB900 bloodstream form; assay type: functional, organism-based
[2] = Selectivity index, ratio of EC50 for Trypanosoma cruzi Tulahuen C2C4 amastigotes to the EC50 for rat L6 cells
Plasmodium falciparum = test: Antiparasitic activity against Plasmodium falciparum 3D7 at erythrocytic stage; assay type: functional, organism-based
Leishmania donovani = test: Antiparasitic activity against Leishmania donovani MHOM/ET/67/L82 amastigotes; assay type: functional, organism-based
Trypanothione reductase = Trypanothione reductase (Trypanosoma cruzi, UniProt P28593); test: Inhibition of Trypanosoma cruzi X10/1 recombinant trypanothione reductase assessed as increase in absorbance at 410 nm due to the formation of TNB
Trypanothione reductase, sequence (P28593 whole entry): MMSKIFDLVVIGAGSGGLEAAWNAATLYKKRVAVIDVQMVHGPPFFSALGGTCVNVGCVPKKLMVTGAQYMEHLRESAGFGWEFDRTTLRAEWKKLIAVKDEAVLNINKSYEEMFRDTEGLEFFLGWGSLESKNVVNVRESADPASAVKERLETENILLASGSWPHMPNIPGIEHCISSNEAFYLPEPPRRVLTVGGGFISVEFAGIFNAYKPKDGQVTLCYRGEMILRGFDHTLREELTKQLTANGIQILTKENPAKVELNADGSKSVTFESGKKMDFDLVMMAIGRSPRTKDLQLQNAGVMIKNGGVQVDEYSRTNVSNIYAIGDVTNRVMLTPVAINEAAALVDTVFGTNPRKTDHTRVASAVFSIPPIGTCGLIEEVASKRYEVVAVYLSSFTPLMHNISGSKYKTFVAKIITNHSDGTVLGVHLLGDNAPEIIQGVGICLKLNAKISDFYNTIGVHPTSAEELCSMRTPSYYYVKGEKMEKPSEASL

SMILES | EC50 (Trypanosoma cruzi) [µM] | EC50 (L6) [µM] | other results
CN1C2CCC1CC(=NOC1c3ccccc3-c3ccccc31)C2 | > 10 | 68 | 
CC(C)=NOC(c1ccccc1)c1ccc(Cl)cc1 (stereo not drawn) | > 10 | > 100 | 
CN1C2CCC1CC(=NOC(c1ccc(Cl)cc1)c1cccnc1)C2 (stereo not drawn) | 0.5 | > 100 | 
CN1C2CCC1CC(=NOC(CCc1ccc(Cl)cc1)c1ccccc1)C2 (stereo not drawn) | 0.8 | 16 | 
CN(C)CCN1C2CCC1CC(=NOC(c1ccccc1)c1ccc(Cl)cc1)C2 (stereo not drawn) | 6.9 | 15 | 
CN1C2CCC1CC(=NOCc1ccccc1)C2 | > 10 | > 100 | 
O=C(Cn1ccnc1[N+](=O)[O-])NCc1ccccc1 [BENZNIDAZOLE] | 1.8 |  | 
COc1cc([C@@H]2c3cc4c(cc3[C@H](O)[C@H]3COC(=O)[C@H]23)OCO4)cc(OC)c1OC [PODOFILOX] |  | 0.014 | 
Nc1nc(N)nc(Nc2ccc([As]3SCC(CO)S3)cc2)n1 (stereo not drawn) [MELARSOPROL] |  |  | EC50 [1]: 0.017 µM
Cc1ccc(C(ON=C2CC3CCC(C2)N3C)c2ccccc2)cc1 (stereo not drawn) | 0.3 | 51 | 
CN1C2CCC1CC(=NOC(c1ccccc1)c1cccc(Cl)c1)C2 (stereo not drawn) | 2.1 | 19 | 
CN1C2CCC1CC(=NOC(c1ccccc1)c1ccc(C(F)(F)F)cc1)C2 (stereo not drawn) | 0.03 | 35 | Ratio EC50 [2]: >1000
CN1C2CCC1CC(=NOC(c1ccccc1)c1ccc(Cl)cc1)C2 (stereo not drawn) | 0.11 | 36 | EC50 (Plasmodium falciparum): 7.5 µM; EC50 (Leishmania donovani): > 30 µM; EC50 [1]: 3 µM; EC50 (Trypanothione reductase): 35 µM
CN1C2CCC1CC(=NOC(CCCc1ccccc1)c1ccc(Cl)cc1)C2 (stereo not drawn) | 4.3 | 17 | 
CN1C2CCC1CC(=NOC(Cc1ccccc1)c1ccc(Cl)cc1)C2 (stereo not drawn) | 2.1 | 40 | 
CN1C2CCC1CC(=NOC(c1ccccc1)c1ccccc1Cl)C2 (stereo not drawn) | 6.8 | 15 | 
Clc1ccc(C(ON=C2CCCCC2)c2ccccc2)cc1 (stereo not drawn) | > 10 | > 100 | 
CN1C2CCC1CC(=NOC(c1ccccc1)c1ccc(Br)cc1)C2 (stereo not drawn) | 0.04 | 40 | 
CN1C2CCC1CC(=NOC(c1ccccc1)c1ccccc1)C2 | 1.3 | > 100 | 
CCN(CC)CCCC(C)Nc1ccnc2cc(Cl)ccc12 (stereo not drawn) [CHLOROQUINE] |  |  | EC50 (Plasmodium falciparum): 0.0094 µM

SMILES | EC50 (Trypanosoma cruzi) [µM] | EC50 (L6) [µM] | other results
COc1cccc(C(ON=C2CC3CCC(C2)N3C)c2ccccc2)c1 (stereo not drawn) | 2 | 48 | 
CN1C2CCC1CC(=NOC(c1ccc(Cl)cc1)c1ccccn1)C2 (stereo not drawn) | 2.9 | > 100 | 
COc1ccccc1C(ON=C1CC2CCC(C1)N2C)c1ccccc1 (stereo not drawn) | > 10 | > 100 | 
CN1C2CCC1CC(=NOC(c1ccc(Cl)cc1)c1nccs1)C2 (stereo not drawn) | 2.3 | > 100 | 
CN1C2CCC1CC(=NOC(c1ccc(Cl)cc1)c1ccc(Cl)cc1)C2 | 6 | 16 | 
CN1C2CCC1CC(=NOC(Cc1ccc(Cl)cc1)c1ccccc1)C2 (stereo not drawn) | 1.9 | 49 | 
CN1C2CCC1CC(=NOC(c1ccncc1)c1ccc(Cl)cc1)C2 (stereo not drawn) | 6.2 | > 100 | 
CN1CCC(=NOC(c2ccccc2)c2ccc(Cl)cc2)CC1 (stereo not drawn) | 3.7 | 50 | 
CN1C2CCC1CC(=NOC(CCc1ccccc1)c1ccc(Cl)cc1)C2 (stereo not drawn) | 6.5 | 20 | 
OCCN1C2CCC1CC(=NOC(c1ccccc1)c1ccc(Cl)cc1)C2 (stereo not drawn) | 7.8 | 47 | 
CN1C2CCC1CC(=NOCc1ccc(Cl)cc1)C2 | > 10 | > 100 | 
CN1C2CCC1CC(=NOC(c1ccccc1)c1ccc(F)cc1)C2 (stereo not drawn) | 0.8 | 50 | 
Clc1ccc(C(ON=C2CC3CCC(C2)N3)c2ccccc2)cc1 (stereo not drawn) | 2 | 9.8 | 
CN1C2CCC1CC(=NOC(c1ccc(Cl)cc1)c1cscn1)C2 (stereo not drawn) | 0.8 | 71 | 
COc1ccc(C(ON=C2CC3CCC(C2)N3C)c2ccccc2)cc1 (stereo not drawn) | 0.3 | > 100 | 
CCCCCCCCCCCCCCCCOP(=O)([O-])OCC[N+](C)(C)C [MILTEFOSINE] |  |  | EC50 (Leishmania donovani): 0.27 µM
CN1C2CCC1CC(=NOC(c1ccccc1)c1ccc(I)cc1)C2 (stereo not drawn) | 0.04 | 39 | 
CN1C2CCC1CC(=NOC(c1ccccc1)c1ccc(C#N)cc1)C2 (stereo not drawn) | 0.4 | 53 | 
CN1C2CCC1CC(=NOC(c1ccc(Cl)cc1)c1cncs1)C2 (stereo not drawn) | 6 | > 100 | 
